Measured values: paper PMC7279231 (International Journal of Molecular Sciences, 2020)
Read-outs that look alike come from different tables or passages of the source.

Columns and labels:
HepG2 cells [1] = test: LDH leakage assay (cellular membrane integrity), HepG2; type: cell-based, human
Experimental: (§1) The human hepatoma cell line (HepG2) was purchased from the American Type Culture Collection (ATCC HB-8065). These cells were cultured in Minimum Essential Medium Eagle (MEME) (ATCC). The murine fibroblast cell line (Balb/c 3T3 clone A31) was purchased from the American Type Culture Collection (ATCC CCL-163), and the cells were cultured in Dulbecco’s Modified Eagle’s Medium (DMEM) (ATCC). The media were supplemented with 10% BCS (Balb/c 3T3), 10% FBS (HepG2), 1% L-glutamine, and 1% antibiotic solution. The cells were maintained in 75-cm^2 cell culture flasks (NUNC, Roskilde, Denmark) in a humidified incubator, NuAire (Plymouth, MN, USA) at 37 °C and 5% CO2. The medium was refreshed every two days and the cells were trypsinized by 0.25% trypsin–0.02% EDTA after reaching 70–80% confluence. Then, cell suspensions at a density of 2 × 10^5 cells/mL (HepG2) and 5 × 10^4 cells/mL (Balb/c 3T3) were transferred to 96-well plates (100 μL/well) and incubated for 24 h before the exposure to the studied compounds.
(§2) As a control, cultured cells were grown in the absence of the studied compounds. Each concentration was tested in six replicates in three independent experiments. Cytotoxicity was assessed after 72 h of cell exposure to the compounds in darkness. The medium was not changed during the incubation time.
LDH leakage assay. The integrity of the plasma membrane was assessed through the test of lactate dehydrogenase (LDH) release, which was monitored using the commercially available Cytotoxicity Detection Kit (LDH) (Roche Diagnostics, Warsaw, Poland). The medium (100 μL/well) without cells was transferred into the corresponding wells of an optically clear 96-well flat-bottom microplate, and 100 μL of reaction mixture was added to each well. Then, the plates were incubated for 30 min at room temperature in darkness. After that time, 50 μL/well of 1 M HCl was added to stop the reaction. The absorbance was measured at 492 nm in a microplate reader (Synergy HTX multi-mode reader (BioTek® Instruments Inc., Winooski, VT, USA)) using a blank as a reference. […]

Balb/c 3T3 fibroblasts [2] = test: NRU assay (lysosomal activity), Balb/c 3T3; type: cell-based, murine
Experimental: as §1, §2
(§3) NRU assay. This method is based on staining living cells with neutral red which readily diffuses through the plasma membrane and accumulates in lysosomes. After the incubation, the medium containing the drug was removed, and the cells were washed with PBS. Then, 100 μL/well of NR solution (50 μg/mL) was added for 3 h. After this time, the cells were washed with PBS. The dye from viable cells was released by extraction with a mixture of acetic acid, ethanol, and water (1:50:49, v:v:v). After 10 min of shaking, the absorbance of the dissolved NR was measured using a Synergy HTX multi-mode reader (BioTek® Instruments Inc., Winooski, VT, USA) at 540 nm using a blank as a reference. Cytotoxicity was expressed as a percentage of the negative control (0.1% DMSO).
(§4) The study was performed in three independent experiments. […] Assessment of the cytotoxicity data used a one-way analysis of variance (ANOVA) followed by Dunnett’s post-hoc test, which was applied to determine significance relative to the negative control. The cytotoxicity concentration (IC20 and IC50) necessary for 20% and 50% inhibition of cell viability, respectively, by the drug was calculated using GraphPad Prism 5.0. Statistical comparisons among IC50 values were performed by the analysis of variance (ANOVA) followed by the Tukey test, and differences were considered statistically significant at p ≤ 0.05.

HepG2 cells [3] = test: TPC assay (total protein content), HepG2; type: cell-based, human
Experimental: as §1, §2
(§5) TPC assay. The assay was based upon staining total cellular protein (proliferation). After the incubation, the medium containing drug was removed and 100 μL of Coomassie brilliant blue R-250 dye was added to each well. The plate was shaken for 10 min. Then, the stain was removed and the cells were rinsed twice with 100 μL of washing solution (glacial acetic acid/ethanol/water, 5:10:85, v:v:v). After that, 100 μL of the desorbing solution (1 M potassium acetate) was added, and plates were shaken again for 10 min. The absorbance was measured at 595 nm in a microplate reader (Synergy HTX multi-mode reader (BioTek® Instruments Inc., Winooski, VT, USA)) using a blank as a reference. Cytotoxicity was expressed as a percentage of the negative control (0.1% DMSO).
as §4

Balb/c 3T3 fibroblasts [4] = test: LDH leakage assay (cellular membrane integrity), Balb/c 3T3; type: cell-based, murine
Experimental: as §1, §2
LDH leakage assay. The integrity of the plasma membrane was assessed through the test of lactate dehydrogenase (LDH) release, which was monitored using the commercially available Cytotoxicity Detection Kit (LDH) (Roche Diagnostics, Warsaw, Poland). The medium (100 μL/well) without cells was transferred into the corresponding wells of an optically clear 96-well flat-bottom microplate, and 100 μL of reaction mixture was added to each well. Then, the plates were incubated for 30 min at room temperature in darkness. After that time, 50 μL/well of 1 M HCl was added to stop the reaction. The absorbance was measured at 492 nm in a microplate reader (Synergy HTX multi-mode reader (BioTek® Instruments Inc., Winooski, VT, USA)) using a blank as a reference.
as §4

Balb/c 3T3 fibroblasts [5] = test: TPC assay (total protein content), Balb/c 3T3; type: cell-based, murine
Experimental: as §1, §2, §5, §4

Balb/c 3T3 fibroblasts [6] = test: MTT assay (mitochondrial activity), Balb/c 3T3; type: cell-based, murine
Experimental: as §1, §2
(§6) MTT assay. The metabolic activity of living cells was assessed by the measurement of the activity of dehydrogenases. After incubation of the cells with the study compound, 10 μL of the MTT solution (5 mg/mL in phosphate buffered saline (PBS)) was added to each well of the 96-well plate and incubated. After 3 h, the MTT solution was removed, and intracellular formazan crystals were dissolved in 100 μL DMSO. The plate was shaken for 15 min at room temperature and transferred to a microplate reader (Synergy HTX multi-mode reader (BioTek® Instruments Inc., Winooski, VT, USA)) to measure the absorbance at 570 nm, using a blank as a reference. Cytotoxicity was expressed as a percentage of the negative control (0.1% DMSO).
as §4

HepG2 cells [7] = test: NRU assay (lysosomal activity), HepG2; type: cell-based, human
Experimental: as §1, §2, §3, §4

HepG2 cells [8] = test: MTT assay (mitochondrial activity), HepG2; type: cell-based, human
Experimental: as §1, §2, §6, §4

Balb/c 3T3 fibroblasts [9] = test: Cytotoxicity over the MTT, NRU, TPC and LDH assays, Balb/c 3T3; type: cell-based, murine; conditions: Balb/c 3T3, up to 1 μM, Figure S5
Experimental: as §1, with “The medium was refreshed every two days and the cells were trypsinized by 0.25% trypsin–0.02% EDTA after reaching 70–80% confluence. Then, cell suspensions at a density of 2 × 10^5 cells/mL (HepG2) and 5 × 10^4 cells/mL (Balb/c 3T3) were transferred to 96-well plates (100 μL/well) and incubated for 24 h before the exposure to the studied compounds.” left out
(§7) As a control, cultured cells were grown in the absence of the studied compounds. […] Cytotoxicity was assessed after 72 h of cell exposure to the compounds in darkness. […]
(§8) MTT assay. The metabolic activity of living cells was assessed by the measurement of the activity of dehydrogenases. […] The plate was shaken for 15 min at room temperature and transferred to a microplate reader (Synergy HTX multi-mode reader (BioTek® Instruments Inc., Winooski, VT, USA)) to measure the absorbance at 570 nm, using a blank as a reference. Cytotoxicity was expressed as a percentage of the negative control (0.1% DMSO).
(§9) NRU assay. […] Cytotoxicity was expressed as a percentage of the negative control (0.1% DMSO). […]

[10] = cited from earlier work
[11] = test system: human cancer cells (breast, bladder, colorectal cancer cell lines, acute myelogenous leukemia, osteosarcoma cells); parameters: method as in PMID 26286663; conditions: cited from earlier work
HepG2 cells [12] = test: Cytotoxicity over the MTT, NRU, TPC and LDH assays, HepG2; type: cell-based, human; conditions: HepG2, up to 1 μM, Figure S5
Experimental: as §1, with “The medium was refreshed every two days and the cells were trypsinized by 0.25% trypsin–0.02% EDTA after reaching 70–80% confluence. Then, cell suspensions at a density of 2 × 10^5 cells/mL (HepG2) and 5 × 10^4 cells/mL (Balb/c 3T3) were transferred to 96-well plates (100 μL/well) and incubated for 24 h before the exposure to the studied compounds.” left out
as §7, §8, §9

[13] = Balb/c 3T3, NRU, 72 h exposure, mean (n = 3) ± SD
[14] = HepG2, TPC, 72 h exposure, mean (n = 3) ± SD
[15] = Balb/c 3T3, LDH, 72 h exposure, mean (n = 3) ± SD
[16] = Balb/c 3T3, TPC, 72 h exposure, mean (n = 3) ± SD
[17] = Balb/c 3T3, MTT, 72 h exposure, mean (n = 3) ± SD
[18] = HepG2, NRU, 72 h exposure, mean (n = 3) ± SD
[19] = HepG2, MTT, 72 h exposure, mean (n = 3) ± SD

## O=[N+]([O-])[O-].[Ag+] [AgNO3, Silver nitrate]
HepG2 cells [1]
  IC20: > 1 µM
  IC50: > 1 µM
Balb/c 3T3 fibroblasts [2]
  IC20: > 1 µM
  IC50: > 1 µM
HepG2 cells [3]
  IC20: > 1 µM
  IC50: > 1 µM
Balb/c 3T3 fibroblasts [4]
  IC20: > 1 µM
  IC50: > 1 µM
Balb/c 3T3 fibroblasts [5]
  IC20: > 1 µM
  IC50: > 1 µM
Balb/c 3T3 fibroblasts [6]
  IC20: > 1 µM
  IC50: > 1 µM
HepG2 cells [7]
  IC20: > 1 µM
  IC50: > 1 µM
HepG2 cells [8]
  IC20: > 1 µM
  IC50: > 1 µM

## N.N.[Cl][Pt][Cl] [Cisplatin, cis-diamminedichloroplatinum(II)]
HepG2 cells [1]; HepG2, LDH, 72 h exposure, mean (n = 3) ± SD
  IC50: 0.01 ± 0.001 µM
Balb/c 3T3 fibroblasts [2]; [13]
  IC20: > 1 µM
  IC50: > 1 µM
HepG2 cells [3]; [14]
  IC20: < 0.0001 µM
  IC50: > 1 µM
Balb/c 3T3 fibroblasts [4]; [15]
  IC20: > 1 µM
  IC50: > 1 µM
Balb/c 3T3 fibroblasts [5]; [16]
  IC20: > 1 µM
  IC50: > 1 µM
Balb/c 3T3 fibroblasts [6]; [17]
  IC20: > 1 µM
  IC50: > 1 µM
HepG2 cells [7]; [18]
  IC20: < 0.0001 µM
  IC50: > 1 µM
HepG2 cells [8]; [19]
  IC20: < 0.0001 µM
  IC50: > 1 µM

## Clc1ccc(COC(Cn2ccnc2)c2ccc(Cl)cc2Cl)c(Cl)c1 (stereo not shown) [Miconazole, 1-[2-(2,4-dichlorobenzyloxy)-2-(2,4-dichlorophenyl)ethyl]-1H-imidazole]
Balb/c 3T3 fibroblasts [9]
  toxicity to the cell line (in words): not toxic
[10]; ethanol
  solubility: soluble
[10]; methanol
  solubility: hardly soluble
[10]; water
  solubility: practically insoluble
[11]
  concentration inhibiting the proliferation of human cancer cells: ≤ 10 µM
HepG2 cells [12]
  toxicity to the cell line (in words): not toxic
